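Growth conditions: 96-well plates. Treatment: test compound, 48 hours, 5 concentrations. Analysis: linear interpolation between bracketing concentrations; unreached endpoints set to highest concentration. TGI marks complete inhibition of growth.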
Experiments:
Assay in all cases: NCI anticancer screen, dose series, 48 h
OVCAR-5 ovarian = system: OVCAR-5 ovarian
HT29 colon = system: HT29 colon
RXF 393 renal = system: RXF 393 renal
UO-31 renal = system: UO-31 renal
SF-268 CNS = system: SF-268 CNS
SK-MEL-5 melanoma = system: SK-MEL-5 melanoma
SF-295 CNS = system: SF-295 CNS
SK-OV-3 ovarian = system: SK-OV-3 ovarian
RPMI-8226 leukemia = system: RPMI-8226 leukemia

Structure (SMILES)	TGI (OVCAR-5 ovarian) [µM]	TGI (HT29 colon) [µM]	TGI (RXF 393 renal) [µM]	TGI (UO-31 renal) [µM]	TGI (SF-268 CNS) [µM]	TGI (SK-MEL-5 melanoma) [µM]	TGI (SF-295 CNS) [µM]	TGI (SK-OV-3 ovarian) [µM]	TGI (RPMI-8226 leukemia) [µM]
CC(=O)NC1C(OCc2ccccc2)OC(CO)C(O)C1OCC(=O)NC(C)C(=O)NC(CCC(=O)Nc1ccc2c(c1)CN1C(=O)c3ccccc3C1=N2)C(N)=O (configuration not stated)	> 100	> 100	> 100	> 100	> 100	> 100	> 100	> 100	> 100
CCC/C(Cl)=N/OC(=O)Nc1cccc(F)c1	36.3	9.35	20.5	23.3	> 54.4	20.4	32.5	31	8.08
O=C(CN1c2ccccc2Sc2ccccc21)n1cnc2ccccc21	> 100	> 100	> 100	> 100	> 100	> 100	> 100	> 100	> 100
CCOC(=O)c1cc(NC(=O)c2ccccc2)c(=O)n2c(cc3c(Cl)cccc32)c1O	> 100	> 100	> 100	> 100	> 100	> 100	> 100	> 100	> 100
O=C(CCl)Nc1ccc(-c2nc3ccccc3s2)cc1	17.1	5.57	7.67	20.6	8.44	3.17	15	17.5	5.34
ClCc1nc2cc(Cl)ccc2o1	38.6	6.5	29.8	2.54	26.7	25.8	37.4	28.9	4.07
N#Cc1c(-c2ccccc2)cc(Nc2ccc(F)cc2)n2c1nc1ccccc12	> 29.2	6.43	> 31.4	6.66	> 62.1	2.73	> 29.6	8.71	> 100
CC(=O)Nc1ccccc1S(=O)(=O)c1c(-c2c(C)c(Cl)c(C)c(Cl)c2C)noc1C	> 100	> 100	> 100	> 100	> 100	> 100	> 100	> 100	> 100
c1ncc(C23C4C5C6C4C2C6C53)[nH]1 (configuration not stated)	> 100	> 100	> 100	> 100	> 100	> 100	> 100	> 100	> 100
O=C(O)c1ccccc1/C=C1\Cc2ccc3c(c2C1=O)CCCC3	> 100	> 100	76.3	> 100	> 100	37	99.5	> 100	60.8
COC(=O)/C=C1/OC(c2ccccc2)=CC1=O	36.9	39	27.7	31.7	44.7	51.3	21.8	> 94.4	23.2
COc1ccc([N+](=O)[O-])cc1[I+]c1cc([N+](=O)[O-])ccc1OC	> 100	> 100	> 100	> 100	> 100	24.9	> 100	82.3	> 100
Brc1ccc(C2(N3CCCCC3)CCCCC2)s1	> 100	> 100	33.3	> 100	> 100	22.3	> 100	> 100	39.5
CC(=O)NC1C(OCc2ccccc2)OC(CO)C(O)C1OC(C)C(=O)NC(C(=O)NC(CCC(=O)Nc1ccc2c(c1)CN1C(=O)c3ccccc3C1=N2)C(N)=O)C(C)C (configuration not stated)	> 100	> 100	> 100	> 100	> 100	> 100	> 100	> 100	> 100
CC1=NN(c2ccccc2Cl)C2(C1)SCC(=O)N2c1nc2ccccc2s1 (configuration not stated)	> 100	> 100	> 100	> 100	> 100	> 100	> 100	> 100	> 100
Cc1cc2c(cc1-c1cc3c(cc1C)C(C(C)C)=C(O)C(=O)/C3=C\Nc1cccc3c(N)cccc13)/C(=C/Nc1cccc3c(N)cccc13)C(=O)C(O)=C2C(C)C	> 100	> 100	> 100	> 100	> 100	> 100	> 100	> 100	> 100
CCOP(=O)(OCC)OC1CC(n2cnc3c(N(CC)CC)ncnc32)OC1CO[Si](C)(C)C(C)(C)C (configuration not stated)	37.1	35	32.3	35.4	31.5	31.4	31	31.6	> 100
CCCCC[C@H]1CC=CC(=O)O1	70	19.8	9.16	24	22.3	21.3	37.1	39.7	19.3
